In ChEMBL document CHEMBL1151995, “Evaluation of tea polyphenols as anti-HIV agents” (Bioorg Med Chem Lett, 1996):
≈ marks a conversion by molar mass, not a printed value.

Key:
[1] = system: Human immunodeficiency virus 1; assay: Inhibition of HIV-1 replication in H9 (human lymphoma) cells; No suppression.; type: functional, organism-based
[2] = system: H9; assay: Inhibition of uninfected H9 lymphocytic cell growth; type: functional, cell-based; details: Homo sapiens
[3] = system: Human immunodeficiency virus 1; assay: Inhibition of HIV-1 replication in H9 (human lymphoma) cells.; type: functional, organism-based; details: Human immunodeficiency virus 1, H9
[4] = Therapeutic index - IC50/EC50.; details: read-out: Therapeutic index

Compound	EC50 [1]	EC50 [3]	IC50 [2]	selectivity ratio [4]
COc1cc(C(=O)O[C@@H]2Cc3c(O)cc(O)cc3O[C@@H]2c2ccc(O)c(O)c2)cc(O)c1O	No effect	–	50 µg/mL (≈ 110 µM)	–
COc1c(O)cc(C(=O)O[C@@H]2Cc3c(O)cc(O)cc3O[C@@H]2c2ccc(O)c(O)c2)cc1O	No effect	–	50 µg/mL (≈ 110 µM)	–
O=C(O[C@@H]1Cc2c(O)cc(O)cc2O[C@@H]1c1ccc(O)cc1)c1cc(O)c(O)c(O)c1	Not Active	–	50 µg/mL (≈ 117 µM)	–
Oc1cc(O)c2c(c1)O[C@H](c1cc(O)c(O)c(O)c1)[C@H](O)[C@H]2c1c(O)cc(O)c2c1O[C@H](c1cc(O)c(O)c(O)c1)[C@H](O)C2	–	15 µg/mL (≈ 24.6 µM)	18 µg/mL (≈ 29.5 µM)	1.2
Oc1cc(O)c2c(c1)O[C@H](c1cc(O)c(O)c(O)c1-c1c([C@H]3Oc4cc(O)cc(O)c4C[C@H]3O)cc(O)c(O)c1O)[C@H](O)C2	–	6 µg/mL (≈ 9.83 µM)	9.5 µg/mL (≈ 15.6 µM)	1.6
O=C(/C=C/c1ccc(O)cc1)O[C@@H]1Cc2c(O)cc(O)cc2O[C@@H]1c1cc(O)c(O)c(O)c1	–	8 µg/mL (≈ 17.7 µM)	35 µg/mL (≈ 77.4 µM)	4.4
Oc1cc(O)c2c(c1)O[C@H](c1cc(O)c(O)c(O)c1)[C@@H](O)[C@@H]2c1c(O)cc(O)c2c1O[C@H](c1cc(O)c(O)c(O)c1)[C@H](O)C2	–	12 µg/mL (≈ 19.7 µM)	18 µg/mL (≈ 29.5 µM)	1.5
O=C(O[C@@H]1Cc2c(O)cc(O)cc2O[C@@H]1c1cc(O)c(=O)c2c(O)c(O)c(O)cc2c1)c1cc(O)c(O)c(O)c1	–	5.5 µg/mL (≈ 9.96 µM)	25 µg/mL (≈ 45.3 µM)	4.5
O=C(O[C@@H]1Cc2c(O)cc3c(c2O[C@@H]1c1cc(O)c(O)c(O)c1)C1(O)C(=O)O[C@H]([C@@H](O)CO)C1(O)O3)c1cc(O)c(O)c(O)c1 (stereo partly drawn)	–	10 µg/mL (≈ 15.8 µM)	40 µg/mL (≈ 63.2 µM)	4
O=C1O[C@H]([C@@H](O)CO)C2(O)Oc3cc(O)c4c(c3C12O)O[C@H](c1cc(O)c(O)c(O)c1)[C@H](O)C4 (stereo partly drawn)	–	4 µg/mL (≈ 8.33 µM)	38 µg/mL (≈ 79.1 µM)	9.5
Oc1cc(O)c2c(c1)OC(c1cc(O)c(O)c(O)c1-c1c(C3Oc4cc(O)cc(O)c4C[C@H]3O)cc(O)c(O)c1O)[C@H](O)C2 (single isomer, unassigned)	–	10 µg/mL (≈ 16.4 µM)	20 µg/mL (≈ 32.8 µM)	2
O=C1c2c(O)cc(O)cc2O[C@H](c2ccc(O)c(O)c2)[C@H]1O [(+)-TAXIFOLIN]	–	9.8 µg/mL (≈ 32.2 µM)	9.8 µg/mL (≈ 32.2 µM)	1
Oc1ccc([C@H]2Oc3cc(O)cc(O)c3C[C@H]2O)cc1 [EPIAFZELECHIN (2R,3R)(-)]	–	70 µg/mL (≈ 255 µM)	100 µg/mL (≈ 365 µM)	1.4
O=C(O[C@@H]1Cc2c(O)cc(O)cc2O[C@@H]1c1ccc(O)c(O)c1)c1cc(O)c(O)c(O)c1 [EPICATECHIN GALLATE]	No effect	–	> 10 µg/mL	–
Oc1cc(O)c2c(c1)O[C@H](c1cc(O)c(O)c(O)c1)[C@H](O)C2 [EPIGALLOCATECHIN]	No effect	–	1.8 µg/mL (≈ 5.88 µM)	–
O=C(O[C@@H]1Cc2c(O)cc(O)cc2O[C@@H]1c1cc(O)c(O)c(O)c1)c1cc(O)c(O)c(O)c1 [EPIGALOCATECHIN GALLATE]	–	7 µg/mL (≈ 15.3 µM)	8 µg/mL (≈ 17.5 µM)	1.1
O=c1c(O)cc([C@H]2Oc3cc(O)cc(O)c3C[C@H]2O)cc2c([C@H]3Oc4cc(O)cc(O)c4C[C@H]3O)cc(O)c(O)c12 [THEAFLAVIN]	No effect	–	48 µg/mL (≈ 85 µM)	–

More lines, main results first:

EC50 [1]	EC50 [3]	Compound	IC50 [2]	selectivity ratio [4]
–	15 µg/mL (≈ 16.4 µM)	O=C(O[C@@H]1[C@@H](c2c(O)cc3c(c2O)C[C@@H](OC(=O)c2cc(O)c(O)c(O)c2)[C@@H](c2cc(O)c(O)c(O)c2)O3)c2c(O)cc(O)cc2O[C@@H]1c1cc(O)c(O)c(O)c1)c1cc(O)c(O)c(O)c1	30 µg/mL (≈ 32.8 µM)	2
–	6.5 µg/mL (≈ 10.6 µM)	O=C(Oc1c(O)cc([C@H]2Oc3cc(O)cc(O)c3C[C@H]2OC(=O)c2cc(O)c(O)c(O)c2)cc1O)c1cc(O)c(O)c(O)c1	40 µg/mL (≈ 65.5 µM)	6.2
No effect	–	O=C(O[C@@H]1Cc2c(O)cc(O)cc2O[C@@H]1c1cc(O)c(O)cc1-c1c([C@H]2Oc3cc(O)cc(O)c3C[C@H]2OC(=O)c2cc(O)c(O)c(O)c2)cc(O)c(O)c1O)c1cc(O)c(O)c(O)c1	50 µg/mL (≈ 55.6 µM)	–
–	25 µg/mL (≈ 34.1 µM)	O=C(O[C@@H]1Cc2c(O)cc(O)cc2O[C@@H]1c1cc(O)c(O)c2c1C1C([C@H]3Oc4cc(O)cc(O)c4C[C@H]3O)=CC(=O)C1(O)O2)c1cc(O)c(O)c(O)c1 (stereo partly drawn)	48 µg/mL (≈ 65.5 µM)	1.9
–	15 µg/mL (≈ 19.7 µM)	O=C(O[C@@H]1Cc2c(O)cc(O)c([C@H]3c4c(O)cc(O)cc4O[C@H](c4cc(O)c(O)c(O)c4)[C@@H]3O)c2O[C@@H]1c1cc(O)c(O)c(O)c1)c1cc(O)c(O)c(O)c1	28 µg/mL (≈ 36.7 µM)	1.9
No effect	–	O=C(O[C@H](Cc1c(O)cc(O)cc1O)[C@H](c1cc(O)c(O)c(O)c1)c1c(O)cc(O)c2c1O[C@H](c1cc(O)c(O)c(O)c1)[C@H](OC(=O)c1cc(O)c(O)c(O)c1)C2)c1cc(O)c(O)c(O)c1	9 µg/mL (≈ 9.82 µM)	–
No effect	–	O=C(O[C@@H]1Cc2c(O)cc(O)c([C@@H]3c4c(O)cc(O)cc4O[C@H](c4cc(O)c(O)c(O)c4)[C@H]3O)c2O[C@@H]1c1cc(O)c(O)c(O)c1)c1cc(O)c(O)c(O)c1	9 µg/mL (≈ 11.8 µM)	–
No effect	–	O=C(O[C@H](Cc1c(O)cc(O)cc1O)[C@@H](c1cc(O)c(O)c(O)c1)c1c(O)cc(O)c2c1O[C@H](c1cc(O)c(O)c(O)c1)[C@H](OC(=O)c1cc(O)c(O)c(O)c1)C2)c1cc(O)c(O)c(O)c1	8 µg/mL (≈ 8.73 µM)	–
No effect	–	O=C(O[C@H]1Cc2c(O)cc3c(c2O[C@H]1c1cc(O)c(O)c(O)c1)[C@H]1c2c(O)cc(O)cc2O[C@@](c2cc(O)c(O)c(O)c2)(O3)[C@@H]1O)c1cc(O)c(O)c(O)c1	40 µg/mL (≈ 52.6 µM)	–
No effect	–	O=C(O[C@@H]1Cc2c(O)cc(O)c(Cc3c(O)cc(O)c4c3O[C@H](c3cc(O)c(O)c(O)c3)[C@H](OC(=O)c3cc(O)c(O)c(O)c3)C4)c2O[C@@H]1c1cc(O)c(O)c(O)c1)c1cc(O)c(O)c(O)c1	45 µg/mL (≈ 48.5 µM)	–
–	6.5 µg/mL (≈ 10.6 µM)	O=C(Oc1cc([C@H]2Oc3cc(O)cc(O)c3C[C@H]2OC(=O)c2cc(O)c(O)c(O)c2)cc(O)c1O)c1cc(O)c(O)c(O)c1	40 µg/mL (≈ 65.5 µM)	6.2
–	25 µg/mL (≈ 26.9 µM)	O=C(O[C@@H]1Cc2c(cc(O)c(Cc3c(O)cc(O)c4c3O[C@H](c3cc(O)c(O)c(O)c3)[C@H](OC(=O)c3cc(O)c(O)c(O)c3)C4)c2O)O[C@@H]1c1cc(O)c(O)c(O)c1)c1cc(O)c(O)c(O)c1	40 µg/mL (≈ 43.1 µM)	1.6
No effect	–	O=C(O[C@@H]1[C@@H](c2c(O)cc(O)c3c2O[C@H](c2cc(O)c(O)c(O)c2)[C@H](OC(=O)c2cc(O)c(O)c(O)c2)C3)c2c(O)cc(O)cc2O[C@@H]1c1cc(O)c(O)c(O)c1)c1cc(O)c(O)c(O)c1	40 µg/mL (≈ 43.7 µM)	–
No effect	–	O=C(O[C@@H]1Cc2c(O)cc(O)cc2O[C@@H]1c1cc(O)c(O)c2c(=O)c(O)cc([C@H]3Oc4cc(O)cc(O)c4C[C@H]3O)cc12)c1cc(O)c(O)c(O)c1	48 µg/mL (≈ 67 µM)	–
–	14 µg/mL (≈ 15.3 µM)	O=C(O[C@H](Cc1c(O)cc(O)cc1O)[C@@H](c1cc(O)c(O)c(O)c1)c1c(O)cc2c(c1O)C[C@@H](OC(=O)c1cc(O)c(O)c(O)c1)[C@@H](c1cc(O)c(O)c(O)c1)O2)c1cc(O)c(O)c(O)c1	35 µg/mL (≈ 38.2 µM)	2.5
–	9 µg/mL (≈ 9.69 µM)	O=C(O[C@@H]1Cc2c(cc(O)c(Cc3c(O)cc4c(c3O)C[C@@H](OC(=O)c3cc(O)c(O)c(O)c3)[C@@H](c3cc(O)c(O)c(O)c3)O4)c2O)O[C@@H]1c1cc(O)c(O)c(O)c1)c1cc(O)c(O)c(O)c1	35 µg/mL (≈ 37.7 µM)	3.9
–	8 µg/mL (≈ 8.75 µM)	O=C(O[C@@H]1Cc2c(O)cc(O)cc2OC1c1cc(O)c(O)c(O)c1-c1c(C2Oc3cc(O)cc(O)c3C[C@H]2OC(=O)c2cc(O)c(O)c(O)c2)cc(O)c(O)c1O)c1cc(O)c(O)c(O)c1 (single isomer, unassigned)	40 µg/mL (≈ 43.7 µM)	5
No effect	–	O=C(O[C@@H]1Cc2c(O)cc(O)cc2O[C@@H]1c1cc(O)c(O)c(O)c1-c1c([C@H]2Oc3cc(O)cc(O)c3C[C@H]2O)cc(O)c(O)c1O)c1cc(O)c(O)c(O)c1 [2',2'-BISEPIGALLOCATECHIN MONOGALLATE]	9.5 µg/mL (≈ 12.5 µM)	–
–	5.5 µg/mL (≈ 9.01 µM)	O=C(Oc1cc(O)cc2c1C[C@@H](OC(=O)c1cc(O)c(O)c(O)c1)[C@@H](c1cc(O)c(O)c(O)c1)O2)c1cc(O)c(O)c(O)c1 [EPIGALLOCATECHIN 3,5-DIGALLATE]	20 µg/mL (≈ 32.8 µM)	3.6
No effect	–	O=C(O[C@@H]1Cc2c(O)cc(O)cc2O[C@@H]1c1cc(O)c(=O)c2c(O)c(O)cc([C@H]3Oc4cc(O)cc(O)c4C[C@H]3OC(=O)c3cc(O)c(O)c(O)c3)c2c1)c1cc(O)c(O)c(O)c1 [THEAFLAVIN DIGALLATE]	48 µg/mL (≈ 55.3 µM)	–
–	19 µg/mL (≈ 20.8 µM)	O=C(O[C@@H]1Cc2c(O)cc(O)cc2O[C@@H]1c1cc(O)c(O)c(O)c1-c1c([C@H]2Oc3cc(O)cc(O)c3C[C@H]2OC(=O)c2cc(O)c(O)c(O)c2)cc(O)c(O)c1O)c1cc(O)c(O)c(O)c1 [THEASINENSIN A]	18 µg/mL (≈ 19.7 µM)	0.95
